Test results: ChEMBL document CHEMBL1201862, “PubChem BioAssay data set” (2004)
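How tested: cells in 96-well plates exposed to compound for 48 hours at five concentrations. GI50 marks 50% less growth.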 The source made the active and inactive calls. Rule as the data show it: active = GI50 up to about 1.1 µM and inactive = higher.

How the values were obtained:
Assay in all cases: growth of human tumour cells (NCI), 48 h
HL-60 = system: HL-60
NCI-H460 = system: NCI-H460
A498 = system: A498
IGROV-1 = system: IGROV-1
MDA-MB-231 = system: MDA-MB-231
Malme-3M = system: Malme-3M
NCI/ADR-RES = system: NCI/ADR-RES
BT-549 = system: BT-549
OVCAR-5 = system: OVCAR-5
OVCAR-4 = system: OVCAR-4
SW-620 = system: SW-620
SF-539 = system: SF-539
SK-MEL-5 = system: SK-MEL-5
A549 = system: A549
EKVX = system: EKVX
786-0 = system: 786-0
U-251 = system: U-251
HOP-92 = system: HOP-92
HCT-15 = system: HCT-15
UACC-62 = system: UACC-62
HT-29 = system: HT-29
MCF7 = system: MCF7
RXF 393 = system: RXF 393
HCC 2998 = system: HCC 2998
LOX IMVI = system: LOX IMVI
SNB-75 = system: SNB-75
CAKI-1 = system: CAKI-1
UO-31 = system: UO-31
OVCAR-8 = system: OVCAR-8
Hs-578T = system: Hs-578T
SK-MEL-28 = system: SK-MEL-28
TK-10 = system: TK-10
KM12 = system: KM12
OVCAR-3 = system: OVCAR-3
M14 = system: M14
UACC-257 = system: UACC-257
SK-MEL-2 = system: SK-MEL-2
HOP-62 = system: HOP-62
CCRF-CEM = system: CCRF-CEM
NCI-H522 = system: NCI-H522
SN12C = system: SN12C
MDA-MB-435 = system: MDA-MB-435
SK-OV-3 = system: SK-OV-3
PC-3 = system: PC-3
SF-268 = system: SF-268
T47D = system: T47D
SF-295 = system: SF-295
ACHN = system: ACHN
NCI-H23 = system: NCI-H23
RPMI-8226 = system: RPMI-8226
HCT-116 = system: HCT-116
NCI-H226 = system: NCI-H226
SR = system: SR
SNB-19 = system: SNB-19
DU-145 = system: DU-145
MOLT-4 = system: MOLT-4
COLO 205 = system: COLO 205
MDA-N = system: MDA-N
K562 = system: K562

Measured: GI50

CCOc1ccc(NC(=O)/C(=N\N)C(C(=O)OC)c2nc3ccc(Cl)cc3nc2O)cc1 (centres undefined)
> 100 µM: HCT-15
inactive: HL-60 > 100 µM | NCI-H460 > 100 µM | A498 > 100 µM | IGROV-1 79.1 µM | MDA-MB-231 > 100 µM | Malme-3M > 100 µM | NCI/ADR-RES > 100 µM | BT-549 > 100 µM | OVCAR-5 > 100 µM | OVCAR-4 > 100 µM | SW-620 > 100 µM | SF-539 > 100 µM | SK-MEL-5 > 100 µM | A549 > 100 µM | EKVX 33 µM | 786-0 > 100 µM | U-251 > 100 µM | HOP-92 > 100 µM | UACC-62 > 100 µM | HT-29 > 100 µM | MCF7 > 100 µM | RXF 393 > 100 µM | HCC 2998 > 100 µM | LOX IMVI > 100 µM | SNB-75 > 100 µM | CAKI-1 > 100 µM | UO-31 72.3 µM | OVCAR-8 > 100 µM | Hs-578T > 100 µM | SK-MEL-28 > 100 µM | TK-10 > 100 µM | KM12 > 100 µM | OVCAR-3 > 100 µM | M14 > 100 µM | UACC-257 > 100 µM | SK-MEL-2 > 100 µM | HOP-62 > 100 µM | CCRF-CEM > 100 µM | NCI-H522 > 100 µM | SN12C > 100 µM | MDA-MB-435 > 100 µM | SK-OV-3 > 100 µM | PC-3 > 100 µM | SF-268 > 100 µM | T47D > 100 µM | SF-295 > 100 µM | ACHN 45 µM | NCI-H23 > 100 µM | RPMI-8226 > 100 µM | HCT-116 > 100 µM | NCI-H226 > 100 µM | SR 21.7 µM

C[C@]12CCC(=O)C=C1CC[C@@H]1C2CC[C@]2(C)c3nn(-c4ccc(F)cc4)nc3CC12 (some centres undefined)
inactive: HL-60 > 100 µM | SNB-19 43.6 µM | NCI-H460 > 100 µM | DU-145 > 100 µM | MOLT-4 > 100 µM | A498 49.8 µM | IGROV-1 > 100 µM | MDA-MB-231 > 100 µM | Malme-3M > 100 µM | BT-549 > 100 µM | OVCAR-5 > 100 µM | OVCAR-4 49.3 µM | SW-620 > 100 µM | SF-539 > 100 µM | SK-MEL-5 > 100 µM | COLO 205 > 100 µM | A549 > 100 µM | MDA-N > 100 µM | EKVX > 100 µM | 786-0 50.4 µM | U-251 53.2 µM | HOP-92 61.1 µM | UACC-62 > 100 µM | HT-29 > 100 µM | MCF7 > 100 µM | RXF 393 67.3 µM | HCC 2998 > 100 µM | SNB-75 38.1 µM | CAKI-1 > 100 µM | UO-31 > 100 µM | OVCAR-8 > 100 µM | Hs-578T 64.6 µM | SK-MEL-28 > 100 µM | K562 > 100 µM | TK-10 > 100 µM | KM12 > 100 µM | OVCAR-3 > 100 µM | M14 > 100 µM | UACC-257 > 100 µM | HOP-62 76.2 µM | CCRF-CEM > 100 µM | NCI-H522 > 100 µM | SN12C > 100 µM | MDA-MB-435 > 100 µM | SK-OV-3 > 100 µM | PC-3 > 100 µM | SF-268 > 100 µM | T47D > 100 µM | SF-295 69.8 µM | ACHN > 100 µM | NCI-H23 > 100 µM | HCT-116 > 100 µM | NCI-H226 > 100 µM | SR > 100 µM

COc1cc2c3c(n(C)c(=O)c2cc1OC)-c1cc2c(cc1/C3=C\CCCCCBr)OCO2
21.3 µM: HCT-15
inactive: HL-60 4.02 µM | SNB-19 6.5 µM | NCI-H460 5.83 µM | MOLT-4 1.45 µM | A498 14.5 µM | MDA-MB-231 40.3 µM | NCI/ADR-RES 32.4 µM | BT-549 93.1 µM | OVCAR-5 67.9 µM | OVCAR-4 26.9 µM | SW-620 8.32 µM | SK-MEL-5 4.07 µM | COLO 205 47.3 µM | A549 9.08 µM | MDA-N 34.8 µM | EKVX 22.3 µM | 786-0 5.77 µM | U-251 3.51 µM | HOP-92 4.52 µM | HT-29 11.2 µM | MCF7 3.5 µM | LOX IMVI 3.01 µM | SNB-75 12.1 µM | CAKI-1 3.81 µM | UO-31 4.66 µM | OVCAR-8 9.53 µM | Hs-578T > 100 µM | K562 6.3 µM | TK-10 20.6 µM | KM12 31.9 µM | UACC-257 25.1 µM | SK-MEL-2 32.2 µM | CCRF-CEM 2.38 µM | NCI-H522 3.73 µM | SN12C 5.96 µM | SK-OV-3 7.91 µM | PC-3 28.8 µM | SF-268 4.31 µM | T47D 2.75 µM | SF-295 4.56 µM | ACHN 4.39 µM | NCI-H23 10.6 µM | RPMI-8226 5.41 µM
active: IGROV-1 0.0546 µM | SK-MEL-28 0.115 µM | SR 0.43 µM

CC1(C)CCC2(C(=O)OC3OC(CO)C(O)C(O)C3O)CCC3(C)C(=CCC4C5(C)CCC(OC6OC(CO)C(O)C(O)C6O)C(C)(C)C5CCC43C)C2C1 (centres undefined)
inactive: HL-60 4.41 µM | SNB-19 8.32 µM | NCI-H460 6.59 µM | DU-145 > 25 µM | MOLT-4 7.26 µM | A498 > 25 µM | IGROV-1 14.1 µM | MDA-MB-231 9.98 µM | Malme-3M 9.77 µM | BT-549 9.44 µM | OVCAR-5 24.1 µM | OVCAR-4 11.8 µM | SW-620 8.83 µM | SF-539 5.4 µM | SK-MEL-5 9.57 µM | COLO 205 8.04 µM | A549 > 25 µM | EKVX > 25 µM | 786-0 17.3 µM | U-251 4.49 µM | HOP-92 7.74 µM | UACC-62 8.67 µM | HT-29 9.46 µM | MCF7 8 µM | RXF 393 > 25 µM | HCC 2998 4.01 µM | LOX IMVI 4.51 µM | SNB-75 11.2 µM | CAKI-1 > 25 µM | UO-31 > 25 µM | OVCAR-8 15.8 µM | Hs-578T 10.7 µM | SK-MEL-28 6.93 µM | K562 9.04 µM | TK-10 > 25 µM | KM12 6.5 µM | OVCAR-3 > 25 µM | M14 14.8 µM | UACC-257 16.9 µM | SK-MEL-2 5.45 µM | HOP-62 > 25 µM | CCRF-CEM 4.51 µM | NCI-H522 5.36 µM | SN12C 10.9 µM | MDA-MB-435 7.16 µM | SK-OV-3 > 25 µM | PC-3 13.6 µM | SF-268 6.93 µM | T47D 6.4 µM | SF-295 15.2 µM | ACHN > 25 µM | NCI-H23 11.9 µM | RPMI-8226 4.18 µM | HCT-116 8.61 µM | NCI-H226 10.5 µM | SR 3.89 µM
> 25 µM: HCT-15

CC(NNC(=O)c1ccc[n+]([BH2-]C#N)c1)c1ccccc1 (centres undefined)
> 100 µM: HCT-15
inactive: HL-60 86.1 µM | SNB-19 > 100 µM | NCI-H460 > 100 µM | DU-145 > 100 µM | MOLT-4 38.3 µM | IGROV-1 > 100 µM | MDA-MB-231 > 100 µM | Malme-3M > 100 µM | NCI/ADR-RES > 100 µM | BT-549 > 100 µM | OVCAR-5 > 100 µM | OVCAR-4 > 100 µM | SW-620 > 100 µM | SF-539 > 100 µM | SK-MEL-5 > 100 µM | COLO 205 > 100 µM | MDA-N > 100 µM | EKVX > 100 µM | 786-0 > 100 µM | U-251 > 100 µM | HOP-92 > 100 µM | UACC-62 > 100 µM | HT-29 > 100 µM | MCF7 > 100 µM | RXF 393 > 100 µM | HCC 2998 > 100 µM | LOX IMVI > 100 µM | SNB-75 > 100 µM | CAKI-1 > 100 µM | UO-31 > 100 µM | OVCAR-8 > 100 µM | SK-MEL-28 > 100 µM | K562 > 100 µM | TK-10 > 100 µM | KM12 > 100 µM | OVCAR-3 > 100 µM | M14 > 100 µM | UACC-257 > 100 µM | SK-MEL-2 > 100 µM | HOP-62 > 100 µM | CCRF-CEM 78.7 µM | NCI-H522 > 100 µM | SN12C > 100 µM | MDA-MB-435 > 100 µM | PC-3 > 100 µM | SF-268 > 100 µM | T47D > 100 µM | SF-295 > 100 µM | ACHN > 100 µM | NCI-H23 > 100 µM | HCT-116 > 100 µM | NCI-H226 > 100 µM
